Assays:
[1] = Enzymatic hydrolysis (stability) in human liver S9 fractions; type: in vitro ADME; conditions: 100 μM compound, human liver S9 0.166 mg/ml, phosphate buffer pH 7.4, active S9 fractions
Description: Enzymes of the nasal cavity are not easily available, but the nasal cavity contains similar enzymatic activities as found in the liver, namely carboxylesterases (J. L. Lewis, K. J. Nikula, R. Novak, A. R. Dahl, Anat Rec 1994, 239). Therefore the different compounds of examples 1-3 were compared for enzymatic hydrolysis using human liver […]. Chemicals were dissolved to a final concentration of 100 μM in a total volume of 600 μl of phosphate buffer (100 mM, pH 7.4, containing 1.15% potassium chloride and 1 mM of EDTA). S9 fractions from humans at a final level of 0.166 mg/ml were added (Corning® Gentest™ Human Liver S9 Pooled Donors, 20 mg/mL protein content, Product #452961;), Lot 22877,). As control experiment, equal levels of heat inactivated S9 fractions (incubated for 10 min at 99° C.) were added to parallel samples. The samples were incubated for different time periods and then mixed in 2 ml glass vials with 300 μl of Methyl-tert-butylether (MTBE) containing as internal standard 1 ppm of dodecane. Samples were extracted on a vortex mixer for 20 s, and then ca. 200 μl of the supernatant was transferred to conical GC vials and concentrated under a stream of nitrogen. 1 μl of these concentrated extracts were then injected with a splitless injection into an Agilent GC 6890N gas chromatograph equipped with a flame-ionisation detector. The following GC conditions were applied: Column: Rtx −5; 30 m length×0.32 mm internal diameter×0.25 μm film thickness; Carrier gas: Hydrogen; Column flow: 2 mL; Initial temperature of 60° C. held for 2 min, subsequent linear gradient with 10° C. per minute up to a temperature of 240° C. […] To determine calibration curves, dilutions of the test chemicals or of the potentially released alcohols were added to heat inactivated S9 fraction and extracted, concentrated and analysed as described above. All concentrations (in test samples and calibration curves) were determined by normalization to the internal standard. […]

[2] = tested on: KeratinoSens cell line (Luciferase gene under the control of the ARE-element of the gene AKR1C2); assay: KeratinoSens assay for skin sensitization: luciferase gene induction; type: cell-based; conditions: for Concentration for 1.5-fold gene induction (EC 1.5 in μM) / Imax (fold maximal gene induction): 48 h incubation, 0.98 to 2000 μM; for Imax (fold maximal gene induction): threshold 1.5-fold; for rating of skin sensitization by the KeratinoSens assay: result in words
Description: Compounds were tested using the commercial KeratinoSens™ assay for skin sensitization.
(§1) The KeratinoSens™ test compares the potential skin sensitization risk of chemicals. The KeratinoSens™ cell line contains a stable insertion of a Luciferase gene under the control of the ARE-element of the gene AKR1C2 and induction of luciferase is indicative of skin sensitization potential (R. Emter, G. Ellis, A. Natsch, Toxicol. Appl. Pharmacol. 2010, 245, 281-290). The assay was performed as described by the OECD test guideline 442d. KeratinoSens cells were grown for 24 h in 96-well plates. The medium was then replaced with medium containing the test chemical and the solvent dimethylsulfoxide (DMSO) at a final level of 1%. Each compound was tested at 12 binary dilutions in the range from 0.98 to 2000 μM. Cells were incubated for 48 h with the test agents, and then luciferase activity and cytotoxicity were determined. This full procedure was repeated three times for each chemical. For each chemical in each repetition and at each concentration, the gene induction compared to DMSO controls and the wells with statistically significant induction over the threshold of 1.5 (i.e. 50% enhanced gene activity) were determined. Furthermore, the maximal fold-induction (Imax) and the EC1.5 value (concentration in μM for induction above the threshold) were calculated. Chemicals are rated as positive (i.e. likely skin-sensitizers) in the assay if the following three criteria are fulfilled:
(i) EC1.5 value is below 1000 μM.
(ii) At the lowest concentration with a gene induction above 1.5 fold, the cellular viability is above 70%.
(iii) There is an apparent overall dose-response for luciferase induction, which is similar between the repetitions.

[3] = KeratinoSens assay: cytotoxicity / cellular viability; type: cell-based; conditions: human; 48 h incubation; read-out: Concentration for 50% Cytotoxicity
Description: as §1, with “fulfilled: […]” for “fulfilled:”

[4] = tested on: test peptide Cor1C-420 (Ac-NKKCDLF); assay: Peptide reactivity assay (kinetic variant of DPRA, LC-MS); conditions: 1 mM test chemical, 0.1 mM peptide, 37° C.
Description: A second method to determine allergenic potential of chemicals is the DPRA direct peptide assay (OECD TG 442c). It is based on the fact that allergenic chemicals must react with a peptide/protein in order to be immunogenic.
A peptide reactivity assay (A. Natsch, H. Gfeller, Toxicol. Sci. 2008, 106, 464-478) was conducted similarly to the DPRA assay, but including a kinetic measurement to quantify reactivity: The test chemicals were dissolved to a final concentration of 4 mM in acetonitrile and 250 μl of this solution were added to 2 ml HPLC vials. The test peptide Cor1C-420 with the sequence Ac-NKKCDLF (Genscript Inc., Piscataway, N.J., USA), was dissolved at 0.133 mM in 20 mM phosphate buffer at pH 7.5, and 750 μl of this solution were added to each test vial (final concentrations: 1 mM of test chemical and 0.1 mM of peptide in 25% acetonitrile; ratio 1:10 as in the DPRA assay). The samples were incubated for 1-24 h at 37° C. and at regular intervals they were analysed by LC-MS analysis on a VELOS PRO Mass spectrometer (Thermo SCIENTIFIC, San Jose, Calif., U.S.A.) operated in the ESI(+) mode.
Mass spectra were recorded from 200-2000 amu. […]
Two endpoints are measured with this assay:
a) Depletion of the parent peptide (FIG. 3): The mass of the protonated parent peptide is measured and the corresponding peak integrated (% depletion). […]

KeratinoSens cells = assay: KeratinoSens assay: cytotoxicity / cellular viability; type: cell-based; conditions: 48 h incubation; read-out: Concentration for 50% Cytotoxicity
Description: as §1, with “fulfilled: […]” for “fulfilled:”

Structure (SMILES) | cleavage (enzymatic hydrolysis of the ester) by active S9 fractions [1] | Concentration for 1.5-fold gene induction (EC 1.5 in μM) [2] | Imax (fold maximal gene induction) [2] [fold] | IC50 at 48 h [3] [µM] | rating of skin sensitization by the KeratinoSens assay [2] | peptide depletion (consumption of the parent peptide as compared to controls) ([4]; 1-24 h) [%] | lower levels of peptide adducts as compared to Damascone Delta and Damascone gamma ([4]; after 1 h) | concentration at which the luciferase gene is induced [2] [µM] | IC50 (KeratinoSens cells) [µM]
C/C=C/C(=O)OC1[C@H](C)CCC[C@H]1C (relative stereo) [Example 2, (2R*,6R*)-2,6-dimethylcyclohexyl (E)-but-2-enoate] | completely hydrolysed |  |  |  |  |  |  |  | 
C/C=C/C(=O)O[C@H]1[C@@H](C)C=CCC1(C)C (relative stereo) [Example 6a, (1S*,2S*)-2,6,6-Trimethylcyclohex-3-en-1-yl (E)-but-2-enoate] |  | No induction | 1.13 | 89.4 |  |  |  |  | 
C/C=C/C(=O)O[C@@H]1[C@H](C)CCC[C@@H]1C [Example 1, (1s*,2R*,6S*)-2,6-dimethylcyclohexyl (E)-but-2-enoate] | < 3% | No induction |  | 86.9 | non-sensitizing | < 10 | > 100 |  | 
C/C=C/C(=O)O[C@H]1[C@H](C)CCC[C@@H]1C [Example 3, (1r*,2R*,6S*)-2,6-dimethylcyclohexyl (E)-but-2-enoate] | 15% |  |  |  |  |  |  |  | 
C/C=C/C(=O)C1=C(C)CCCC1(C)C [β-Damascone, (2E)-1-(2′,6′,6′-trimethylcyclohex-1′-en-1′-yl)but-2-en-1-one, reference compound] |  | 4.5 µM | 29.8 |  | significantly sensitizing compound |  |  | 4.5 | 56.7
